US5783562A, “Luteinizing hormone releasing hormone analogs” (Asta Medica Aktiengesellschaft, priority 1990, dated 1998)
Like-named read-outs stand apart in the source and are kept apart here. One block for each compound: values may come before it. Non-standard residues stand in square brackets, D forms with d. Residues, ends and D or L forms follow the SMILES beside them. dPhe(4-Cl) = N[C@H](Cc1ccc(Cl)cc1)C(=O)O; d2Nal = N[C@H](Cc1ccc2ccccc2c1)C(=O)O; d3Pal = N[C@H](Cc1cccnc1)C(=O)O

Key:
mast cells [1] = assay type: cell-based, rat
Procedure: The healthy, adult, male SD rats (BW 200-250 g) used in this experiment were housed in the same conditions as for the adult, female SD rats above. After anesthetizing with CO2, the peritoneal cavity was washed with 50 ml of PIPES AC medium containing 20 units of heparin. Following centrifugation at 200×g for 8 min. at 4° C., the cells were washed again and resuspended to a concentration of 8-to-24×10^5 total leukocytes/ml in […]. This suspension contained approximately 5-10% mast cells. Washed cells were used immediately after collection and were prewarmed for 5 min. at 37° C. prior to pipetting 0.3 ml aliquots into polystyrene tubes containing 0.3 ml of diluted peptide. The mixtures were incubated for 15 min. at 37° C., and the reaction was stopped by centrifugation at 400×g for 15 min. at 4° C. The supernatants were assayed for histamine content by manual fluorometric assay method after successful extraction with n-butanol and n-heptane. The histamine content can be obtained from the histamine standard curve (see below). The percentage of histamine release can be calculated from the following equation: [formula] where E is the fluorometric reading of the experimental sample, B is the fluorometric reading of samples with cells and buffer only, and C is the fluorometric reading of "complete" samples (cells treated with HCIO4). The standard curve can be obtained by plotting the OD values on a fluorometer at 350 nm/450 nm (activation/fluorescent) against the concentrations of serially diluted solutions of accurately weighed histamine hydrochloride. The relative parameter (r) of the histamine standard curve can be 0.9998, and the lowest detectable concentration of histamine is 0.5 ng/ml. The ED50 value of a peptide can be determined from the dose response curves obtained by plotting the histamine release versus the peptide concentration on semilogarithmic paper. All peptide samples should be tested with mast cells from a minimum of 3 different rats.

[2] = Water-solubility / hydrophilicity of the peptides; assay type: physicochemical
mast cells [3] = details: neuropeptide SP, background; cited from earlier work
rat ovulation = assay: Corbin's rat antiovulation method (antiovulatory activity, AOA); assay type: in vivo; details: in saline, at noon of proestrus, female SD rats
Procedure: Corbin's rat antiovulation method was used in the present invention. Healthy, adult, female SD rats (BW 200-250 g) were used in this experiment. All animals were maintained at 22°-24° C. and on a 14 hr./10 hr. (light/dark) schedule. They were given standard food and water ad libitum. Only those rats showing at least two consecutive 4-day estrous cycles in vaginal smear examination could be used in this experiment. The rats were given peptides (LHRH antagonists) at noon of proestrus with different doses in saline solution. The rats were sacrificed the next day, and both portions of their oviducts were examined using a dissecting microscope in order to determine the ovum number. The rats were divided into several groups according to the dosing, and each group consisted of about 10 rats. The control group, which was given an equivalent amount of saline, consisted of 9-10 rats. […] Evaluation of Histamine Releasing Activity

Compound: CC(=O)N[C@H](Cc1ccc2ccccc2c1)C(=O)N[C@H](Cc1ccc(Cl)cc1)C(=O)N[C@H](Cc1ccc(O)cc1)C(=O)N[C@@H](CO)C(=O)N[C@@H](CCCCN)C(=O)N[C@H](Cc1cccnc1)C(=O)N[C@@H](CC(C)C)C(=O)N[C@@H](CCCNC(=N)N)C(=O)N1CCC[C@H]1C(=O)N[C@H](C)C(N)=O [Compound 4] (Ac-[d2Nal][dPhe(4-Cl)][dY]SK[d3Pal]LRP[dA]-NH2)
- HRA (μg/ml) ED50 ± SEM (mast cells [1]): 6.1 µg/mL

Compound: CC(=O)N[C@H](Cc1ccc2ccccc2c1)C(=O)N[C@H](Cc1ccc(Cl)cc1)C(=O)N[C@H](Cc1cccnc1)C(=O)N[C@@H](CO)C(=O)N[C@@H](Cc1ccc(O)cc1)C(=O)N[C@H](Cc1cccnc1)C(=O)N[C@@H](CC(C)C)C(=O)N[C@@H](CCCNC(=N)N)C(=O)N1CCC[C@H]1C(=O)N[C@H](C)C(N)=O [III, NAc-D2Nal^1 -DpClPhe^2 -D3Pal^3 -Ser^4 -Tyr^5 -D3Pal^6 -Leu^7 -Arg^8 -Pro^9 -DAla^10 -NH2] (Ac-[d2Nal][dPhe(4-Cl)][d3Pal]SY[d3Pal]LRP[dA]-NH2)
- HRA (μg/ml) ED50 ± SEM (mast cells [1]): 9.8 µg/mL

- hydrophilicity [2]: very strong hydrophilicity
Compound: CC(=O)N[C@H](Cc1ccc2ccccc2c1)C(=O)N[C@H](Cc1ccc(Cl)cc1)C(=O)N[C@H](Cc1cccnc1)C(=O)N[C@@H](CO)C(=O)N[C@@H](CCCNC(=N)N)C(=O)N[C@H](Cc1cccnc1)C(=O)N[C@@H](CC(C)C)C(=O)N[C@@H](CCCNC(=N)N)C(=O)N1CCC[C@H]1C(=O)N[C@H](C)C(N)=O [IV, NAc-D2Nal^1 -DpClPhe^2 -D3Pal^3 -Ser^4 -Arg^5 -D3Pal^6 -Leu^7 -Arg^8 -Pro^9 -DAla^10 -NH2] (Ac-[d2Nal][dPhe(4-Cl)][d3Pal]SR[d3Pal]LRP[dA]-NH2)

Compound: Arg^1 -Pro^2 -Lys^3 -Pro^4 -Gln^5 -Gln^6 -Phe^7 -Phe^8 -Gly^9 -Leu^10 -Met^11 -NH2 [neuropeptide SP]
- ED50 for HRA (mast cells [3]): 5 to 15 µM

Compound: NAc-D2Nal^1 -DpClPhe^2 -DPhe^3 Ser^4 -Arg^5 -D3Pal^6 -Leu^7 -Arg^8 -Pro^9 -DAla^10 -NH2 [V]
- % AOA/μg 0.25 (rat ovulation; 0.25 μg): 29%
- % AOA/μg 0.5 (rat ovulation; 0.5 μg): 60%
- % AOA/μg 1.0 (rat ovulation; 1.0 μg): 100%
- HRA (μg/ml) ED50 ± SEM (mast cells [1]; in vitro histamine release, rat peritoneal mast cells): 7.4 µg/mL
